Laboratory results taken from patent US20050074844A1, “Methods for identifying markers of antimicrobial compounds” (priority 2002, published 2005).
Values after ≈ are worked out from the molar mass of the structure shown. Where a SMILES comes first, the peptide text is derived from it.

What was measured:
[1] = test system: Bacillus subtilis BGSC1A2; assay: microbe, parasite or virus in culture
Description: Microbroth dilution assays were performed as described in NCCLS M7-A5 (Vol. 20, No. 2). The assay was performed in a sterile 96 well plate, and the total volume per well was 100 μl. […] The inoculum was prepared by culturing Bacillus subtilis BGSC1A2 overnight in MHB medium at 35° C. with shaking at 200 rpm. The following day 0.5 ml of the overnight culture was used to inoculate MHB medium to obtain a culture in logarithmic phase growth as described in NCCLS M7-A5 (Vol. 20, No. 2) and M26-A (Vol. 19, No. 18). The actual colony forming units per well was confirmed by plating onto TSA or LB agar. Two wells were inoculated for a given concentration. The plates were incubated for 16 to 20 hours at 35° C. The MIC was defined as that concentration of antibiotic resulting in no visible growth of the organism.

[2] = test system: Bacillus subtilis strain BGSC1A2; assay: Growth curve (optical density at 600 nm) of shake flask cultures treated with sub-inhibitory antibiotic concentrations; format: cell-based; conditions: for growth rate as measured by optical density at 600 nm: all sub-inhibitory concentrations tested (Table 3), versus untreated cultures
Description: Bacillus subtilis strain BGSC1A2 was streaked onto a LB agar plate and incubated overnight at 37° C. The cultured plate was stored at room temperature for up to one week. Fifty ml of MHB medium in a 250 ml flask was inoculated with one colony from the plate. The culture was incubated overnight at 37° C. and 200 rpm.
A 30.7 ml sample of the overnight culture was used to inoculate 3.6 liters of MHB medium pre-warmed at 37° C. After mixing the culture well, 600 ml aliquots were removed and placed into each of six 2.8 liter baffled shake flasks. A 1 ml sample of each flask was taken for optical density measurement at 600 nm, and the shake flasks were incubated at 37° C. and 200 rpm. One ml samples were taken from each flask every 30 minutes until the OD600 reached 0.2. At this point, which was designated time zero, 100 ml samples from each shake flask were taken, and 50 ml aliquots were placed in each of two 50 ml centrifuge tubes. In addition, 1.1 ml aliquots were taken from each flask with 1 ml used for an optical density measurement at 600 nm and 50 μl of each was placed in a microfuge tube at 4° C. The 50 ml samples were processed immediately by centrifugation at 4000 rpm at 4° C. for 7 minutes, and after centrifugation the supernatant was decanted being careful not to disturb the pellet which was immediately placed at −80° C. for total RNA isolation at a later time.
(§1) At time zero, different sub-inhibitory concentrations (0.1-1×MIC) of a given antibiotic were added to three of the shake flasks (Table 2) and the other three shake flasks were untreated. The shake flasks were incubated at 37° C. and 200 rpm. At times 5, 15, 30 and 60 minutes after antibiotic addition, 100 ml and 1.1 ml samples were taken from each shake flask and processed as described above. After the 60 minute time point, 1.1 ml aliquots from each shake flask were taken every hour for four hours for optical density and cell viability measurements.

[3] = test system: Bacillus subtilis strain BGSC1A2; assay: Cell viability (colony forming units per ml) of cultures treated with sub-inhibitory antibiotic concentrations; format: cell-based; conditions: for colony forming units or viability: all sub-inhibitory concentrations tested (Table 3), versus untreated cultures
Description: as §1, with “At time zero, different sub-inhibitory concentrations (0.1-1×MIC) of a given antibiotic were added to three of the shake flasks (Table 2) and the other three shake flasks were untreated.” left out
Cell viability was determined on all the samples by determining colony forming units per ml. Samples collected were diluted in MHB to obtain 10 to 500 colonies per plate as follows: samples collected at t=0 were diluted at 1:100,000; t=5 minutes, dilution was 1:150,000; t=15 minutes, dilution was 1:200,000; t=30 minutes, dilution was 1:250,000; t=1 hour, dilution was 1:300,000; t=1.5 hours, dilution was 1:400,000; t=2.5 hours, dilution was 1:800,000; and t=3.5 hours, dilution was 1:1,000,000. These dilutions factors can be changed as indicated by the response to the antibiotic being tested. For each diluted sample 20 μl and 40 μl aliquots were spread onto each of two pre-warmed LB agar plates, which were incubated overnight at 37° C. The number of colonies on each plate was counted to determine the colony forming units per ml of each sample.

[4] = test system: Bacillus subtilis strain BGSC1A2; assay: Growth curve (optical density at 600 nm) of shake flask cultures treated with sub-inhibitory antibiotic concentrations; format: cell-based; conditions: 0.01 and 0.02 x MIC (0.0025 and 0.005 μg/ml)

| Compound | MIC ([1]; Bacillus subtilis, BGSC1A2) [mg/L] | growth rate as measured by optical density at 600 nm [2] | colony forming units or viability [3] | also measured |
| --- | --- | --- | --- | --- |
| CN[C@H](CC(C)C)C(=O)N[C@H]1C(=O)N[C@@H](CC(N)=O)C(=O)N[C@H]2C(=O)N[C@H]3C(=O)N[C@H](C(=O)N[C@H](C(=O)O)c4cc(O)cc(O)c4-c4cc3ccc4O)[C@H](O)c3ccc(c(Cl)c3)Oc3cc2cc(c3O[C@@H]2O[C@H](CO)[C@@H](O)[C@H](O)[C@H]2O[C@H]2C[C@](C)(N)[C@H](O)[C@H](C)O2)Oc2ccc(cc2Cl)[C@H]1O [vancomycin] | 0.125 to 0.25 (≈ 0.0863 to 0.173 µM) | very little effect, if any | no effect on viability | – |
| CCn1cc(C(=O)O)c(=O)c2ccc(C)nc21 [nalidixic acid] | 4 (≈ 17.2 µM) | – | – | – |
| CC(C)C[C@@H](NC(=O)[C@H](C)NC(=O)CNC(=O)[C@@H](NC=O)C(C)C)C(=O)N[C@@H](C)C(=O)N[C@@H](C(=O)N[C@H](C(=O)N[C@@H](C(=O)N[C@@H](Cc1c[nH]c2ccccc12)C(=O)N[C@H](CC(C)C)C(=O)N[C@@H](Cc1c[nH]c2ccccc12)C(=O)N[C@H](CC(C)C)C(=O)N[C@@H](Cc1c[nH]c2ccccc12)C(=O)N[C@H](CC(C)C)C(=O)N[C@@H](Cc1c[nH]c2ccccc12)C(=O)NCCO)C(C)C)C(C)C)C(C)C [gramicidin A] (HELM PEPTIDE1{[O=C[*:2]].V.G.A.[dL].A.[dV].V.[dV].W.[dL].W.[dL].W.[dL].W.[OCCN[*:1]]}$$$$V2.0; N-terminus and C-terminus assumed) | – | – | – | MIC ([1]; BGSC1A2): 8.0 mg/L (≈ 4.25 µM) |
| O=C(O)c1cn(C2CC2)c2cc(N3CCNCC3)c(F)cc2c1=O [ciprofloxacin] | – | – | decrease in colony forming units or viability | – |
| O=C(N[C@H](CO)[C@H](O)c1ccc([N+](=O)[O-])cc1)C(Cl)Cl [chloramphenicol] | 2 to 4 (≈ 6.19 to 12.4 µM) | – | – | – |
| CCn1cc(C(=O)O)c(=O)c2cc(F)c(N3CCNCC3)cc21 [norfloxacin] | 0.5 (≈ 1.57 µM) | very little effect, if any | decrease in colony forming units or viability | – |
| gentamicin | – | very little effect if any | decrease in colony forming units or viability | MIC ([1]; no visible growth after 16 to 20 hours at 35° C., MHB medium): 0.125 to 0.25 mg/L |
| CC[C@H]1OC(=O)[C@H](C)[C@@H](O[C@H]2C[C@@](C)(OC)[C@@H](O)[C@H](C)O2)[C@H](C)[C@@H](O[C@@H]2O[C@H](C)C[C@H](N(C)C)[C@H]2O)[C@](C)(O)C[C@@H](C)C(=O)[C@H](C)[C@@H](O)[C@]1(C)O [erythromycin] | 0.125 to 0.25 (≈ 0.17 to 0.341 µM) | decrease in growth rate that was dose dependent | decrease in colony forming units or viability | – |
| CO[C@@H]1[C@@H](OC(N)=O)[C@@H](O)[C@H](Oc2ccc3c(O)c(NC(=O)c4ccc(O)c(CC=C(C)C)c4)c(=O)oc3c2C)OC1(C)C [novobiocin] | 2 (≈ 3.26 µM) | – | – | – |
| [H]/N=C(/N)N[C@H]1[C@H](O)[C@@H](O)[C@H](O[C@@H]2O[C@@H](C)[C@](O)(C=O)[C@H]2O[C@@H]2O[C@@H](CO)[C@H](O)[C@@H](O)[C@@H]2NC)[C@@H](N/C(N)=N\[H])[C@@H]1O [streptomycin] | 4 to 8 (≈ 6.88 to 13.8 µM) | – | decrease in colony forming units or viability | growth rate as measured by optical density ([2]; 0.8 μg/ml (0.1 x MIC)): growth rate similar to the untreated cultures; growth rate as measured by optical density ([2]; 4.0 μg/ml (0.50 x MIC)): moderate decrease in growth rate; growth rate as measured by optical density ([2]; 8.0 μg/ml (1.0 x MIC)): large |
| CO[C@H]1/C=C/O[C@@]2(C)Oc3c(C)c(O)c4c(O)c(c(/C=N/N5CCN(C)CC5)c(O)c4c3C2=O)NC(=O)/C(C)=C\C=C\[C@H](C)[C@H](O)[C@@H](C)[C@@H](O)[C@@H](C)[C@H](OC(C)=O)[C@@H]1C [rifampin] | 0.25 to 0.5 (≈ 0.304 to 0.608 µM) | – | – | colony forming units ([3]; 0.01 or 0.02 x MIC (0.0025 and 0.005 μg/ml)): no effect on colony forming units; growth rate as measured by optical density [4]: very little effect if any |
| CC(=O)OCC1=C(C(=O)O)N2C(=O)[C@@H](NC(=O)Cc3cccs3)[C@H]2SC1 [cephalothin] | 0.0156 to 0.0625 (≈ 0.0393 to 0.158 µM) | – | decrease in colony forming units or viability | growth rate as measured by optical density ([2]; 0.00156 μg/ml (0.1 x MIC)): very little effect, if any; growth rate as measured by optical density ([2]; 0.0078 μg/ml (0.50 x MIC)): moderate decrease; growth rate as measured by optical density ([2]; 0.0156 μg/ml (1.0 x MIC)): large |
| munumbicin B | – | – | decrease in colony forming units or viability | – |
| COc1cc(Cc2cnc(N)nc2N)cc(OC)c1OC [trimethoprim] | 0.25 (≈ 0.861 µM) | did not have an effect on growth rate | did not lead to a change in colony forming units or viability | – |
